Key:
ABUTH = experiment: Pre-emergence herbicidal activity on ABUTH (velvetleaf); assay type: in vivo, Abutilon theophrasti
Outline: (§1)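 GR80 from percent growth inhibition versus untreated controls, rated about 14 days after planting and pre-emergence soil-surface application. Compound applied in 50:50 acetone:water over freshly covered seeds; pots kept in greenhouse at 30/21 °C day/night.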

SOLNI = experiment: Pre-emergence herbicidal activity on SOLNI (black nightshade); assay type: in vivo, Solanum nigrum
Outline: as §1

AMARE = experiment: Pre-emergence herbicidal activity on AMARE (redroot pigweed); assay type: in vivo, Amaranthus retroflexus
Outline: as §1

DATST = experiment: Pre-emergence herbicidal activity on DATST (jimsonweed); assay type: in vivo, Datura stramonium
Outline: as §1

CHEAL = experiment: Pre-emergence herbicidal activity on CHEAL (common lambsquarters); assay type: in vivo, Chenopodium album
Outline: as §1

CONAR = experiment: Pre-emergence herbicidal activity on CONAR (field bindweed); assay type: in vivo, Convolvulus arvensis
Outline: as §1

POROL = experiment: Pre-emergence herbicidal activity on POROL (common purslane); assay type: in vivo, Portulaca oleracea
Outline: as §1

CIRAR = experiment: Pre-emergence herbicidal activity on CIRAR (canada thistle, seedling); assay type: in vivo, Cirsium arvense
Outline: as §1

ECHCG = experiment: Pre-emergence herbicidal activity on ECHCG (barnyardgrass); assay type: in vivo, Echinochloa crus-galli; conditions: racemic mixture vs enantiomers test; rates tested 1000, 650, 300, 200, 100, 65, 30 and 10 g/ha; lowest rate with 80% or greater inhibition
Outline: as §1

PANMI = experiment: Pre-emergence herbicidal activity on PANMI (wild proso millet); assay type: in vivo, Panicum miliaceum
Outline: as §1

SORHA = experiment: Pre-emergence herbicidal activity on SORHA (johnsongrass, seedling); assay type: in vivo, Sorghum halepense
Outline: as §1

SETFA = experiment: Pre-emergence herbicidal activity on SETFA (giant foxtail); assay type: in vivo, Setaria faberi
Outline: as §1

PANDI = experiment: Pre-emergence herbicidal activity on PANDI (fall panicum); assay type: in vivo, Panicum dichotomiflorum
Outline: as §1

SORVU = experiment: Pre-emergence herbicidal activity on SORVU (shattercane); assay type: in vivo, Sorghum vulgare; conditions: racemic mixture vs enantiomers test; rates tested 1000, 650, 300, 200, 100, 65, 30 and 10 g/ha; lowest rate with 80% or greater inhibition
Outline: as §1

BRAPP = experiment: Pre-emergence herbicidal activity on BRAPP (broadleaf signalgrass); assay type: in vivo, Brachiaria platyphylla
Outline: as §1

DIGSA = experiment: Pre-emergence herbicidal activity on DIGSA (large crabgrass); assay type: in vivo, Digitaria sanguinalis
Outline: as §1

dicotyledonous species = experiment: Pre-emergence test (later test), average GR80 on dicotyledonous species; assay type: in vivo; conditions: average over dicotyledonous species
Excerpt: (§2) All such uses, and the biological activity enabling such uses, are embraced by the term “herbicidal” herein. Tables 15 and 16 summarize results of tests conducted as described below to determine the pre-emergence herbicidal activity, in the form of a GR80 value, of illustrative compounds of this invention. […] Where herbicidal activity was evident but 80% inhibition was not achieved at the highest rate tested (typically 1000 g/ha), an asterisk (*) is shown in the following tables. Herbicidal activity evident in the form of symptoms of phytotoxicity, in the absence of at least 80% inhibition at any rate, is indicated in the tables by “phyto”. A blank cell in the following tables indicates no herbicidal or phytotoxic response at any rate tested.
(§3) The pre-emergence tests were conducted by the following procedure. Topsoil was sieved to pass through a 1.27 cm screen. Fertilizer was added to the topsoil and the mixture was then sterilized by heating. The topsoil mixture was placed in a pot and compacted to a depth of 1.0 to 1.25 cm from the top of the pot. Seeds of each of several monocotyledonous and dicotyledonous annual plant species were placed on top of the soil. […]
(§4) Approximately 14 days after planting and treating, the plants were observed and herbicidal efficacy recorded as percent inhibition by comparison with untreated plants. […]

monocotyledonous species = experiment: Pre-emergence test (later test), GR80 on monocotyledonous species; assay type: in vivo; conditions: average over monocotyledonous species
Excerpt: as §2, §3, §4

[1] = tested on: monocotyledonous and dicotyledonous annual plant species; experiment: Greenhouse pre-emergence test, all species of the test taken together; assay type: in vivo
Excerpt: All such uses, and the biological activity enabling such uses, are embraced by the term “herbicidal” herein. […] Where herbicidal activity was evident but 80% inhibition was not achieved at the highest rate tested (typically 1000 g/ha), an asterisk (*) is shown in the following tables. Herbicidal activity evident in the form of symptoms of phytotoxicity, in the absence of at least 80% inhibition at any rate, is indicated in the tables by “phyto”. A blank cell in the following tables indicates no herbicidal or phytotoxic response at any rate tested.
The pre-emergence tests were conducted by the following procedure. Topsoil was sieved to pass through a 1.27 cm screen. Fertilizer was added to the topsoil and the mixture was then sterilized by heating. The topsoil mixture was placed in a pot and compacted to a depth of 1.0 to 1.25 cm from the top of the pot. Seeds of each of several monocotyledonous and dicotyledonous annual plant species were placed on top of the soil. Additional soil was subsequently placed over the seeds to level-fill the pot. A known amount of each test compound dissolved or suspended in an appropriate organic solvent was diluted with a 50:50 mix of acetone and water and applied to the surface of the soil. After treatment the plants were placed in a greenhouse with a 30/21° C. day/night temperature regime where they received 0.64 cm of overhead irrigation. All subsequent watering consisted of a light overhead mist and/or subirrigation as needed for germination and growth.
Pre-emergence herbicidal activity of the compound of Example 5, a racemic mixture of R- and S-enantiomers of N,N′-(1,2-propanediylbis)-3-(trifluoromethyl) benzamide, was compared with that of the individual R- and S-enantiomers, the compounds of Examples 5a and 5b respectively. The procedure was exactly as described above. Rates tested were 1000, 650, 300, 200, 100, 65, 30 and 10 g/ha.
In a greenhouse pre-emergence test conducted according to the procedure described hereinabove, R—N,N′-(1,2-propanediylbis)-3-(trifluoromethyl)benzamide (the compound of Example 5a) was applied at 200 g/ha and acetochlor was applied at 100 g/ha, both individually and in combination.
In the same greenhouse pre-emergence test, R-2-fluoro-3-trifluoromethyl-N-[1-methyl-2-(3-trifluoromethyl)phenylcarbonylamino]ethylbenzamide (the compound of Example 13) was applied at 100 g/ha and acetochlor was applied at 100 g/ha, both individually and in combination.

corn (maize) = experiment: Field trials, crop selectivity in corn; assay type: in vivo; conditions: pre-emergence rates giving acceptable weed control
sorghum = experiment: Field trials, crop selectivity in sorghum; assay type: in vivo; conditions: pre-emergence rates giving acceptable weed control
soybeans = experiment: Field trials, crop selectivity in soybeans; assay type: in vivo; conditions: pre-emergence rates giving acceptable weed control
[2] = tested on: several weed species, predominantly dicotyledonous species; experiment: Field trials, pre-emergence weed control; assay type: in vivo; conditions: pre-emergence application
cotton = conditions: field trials; pre-emergence
rice = conditions: field trials; pre-emergence
[3] = pre-emergence application, Example 5a 200 g/ha alone
[4] = racemic mixture vs enantiomers test, rates tested 1000, 650, 300, 200, 100, 65, 30 and 10 g/ha, lowest rate with 80% or greater inhibition

- crop selectivity, cotton (cotton): not to be adequately selective
- crop selectivity, rice (rice): not to be adequately selective
Structure (SMILES): C[C@H](CNC(=O)c1cccc(C(F)(F)F)c1)NC(=O)c1cccc(C(F)(F)F)c1 [Example 5a, R—N,N′-(1,2-propanediylbis)-3-(trifluoromethyl)benzamide]
- Percent control ABUTH (ABUTH; [3]): 8%
- Pre-emergence activity (GR80) ABUTH (ABUTH; [4]): 650 g/ha
- Percent control SOLNI (SOLNI; [3]): 100%
- Pre-emergence activity (GR80) SOLNI (SOLNI; [4]): 200 g/ha
- Percent control AMARE (AMARE; [3]): 100%
- Pre-emergence activity (GR80) AMARE (AMARE; [4]): 30 g/ha
- Percent control DATST (DATST; [3]): 41%
- Pre-emergence activity (GR80) DATST (DATST; [4]): 650 g/ha
- Percent control CHEAL (CHEAL; [3]): 100%
- Pre-emergence activity (GR80) CHEAL (CHEAL; [4]): 65 g/ha
- Percent control CONAR (CONAR; [3]): 22%
- Pre-emergence activity (GR80) CONAR (CONAR; [4]): phyto
- Percent control POROL (POROL; [3]): 100%
- Pre-emergence activity (GR80) PORAL (POROL; [4]): 30 g/ha
- Percent control CIRAR (CIRAR; [3]): 35%
- Pre-emergence activity (GR80) CIRAR (CIRAR; [4]): 1000 g/ha
- Pre-emergence activity (GR80) ECHCG (ECHCG): phyto
- Percent control PANMI (PANMI; [3]): 20%
- Pre-emergence activity (GR80) PANMI (PANMI; [4]): 300 g/ha
- Percent control SORHA (SORHA; [3]): 30%
- Pre-emergence activity (GR80) SORHA (SORHA; [4]): phyto
- Percent control SETFA (SETFA; [3]): 40%
- Pre-emergence activity (GR80) SETFA (SETFA; [4]): phyto
- Percent control PANDI (PANDI; [3]): 55%
- Pre-emergence activity (GR80) PANDI (PANDI; [4]): 200 g/ha
- Pre-emergence activity (GR80) SORVU (SORVU): [empty]
- Percent control BRAPP (BRAPP; [3]): 15%
- Pre-emergence activity (GR80) BRAPP (BRAPP; [4]): phyto
- Percent control DIGSA (DIGSA; [3]): 82%
- Pre-emergence activity (GR80) DIGSA (DIGSA; [4]): 65 g/ha
- average pre-emergence GR80 on dicotyledonous species (dicotyledonous species): 235 g/ha
- pre-emergence GR80 on monocotyledonous species (monocotyledonous species): 711 g/ha
- herbicidal activity of the combination compared with expectation ([1]; Example 5a 200 g/ha + acetochlor 100 g/ha, at least on ABUTH, DATST, SORHA and PANMI): greater than expected herbicidal activity
- number of the 14 species showing >85% control ([1]; Example 5a 200 g/ha in combination with acetochlor 100 g/ha): 11
- number of the 14 species showing >85% control ([1]; Example 5a alone at 200 g/ha): 4
- GR80 values relative to those of the racemic mixture ([1]; typical over species of Tables 19 and 20): about one-half
- crop injury, corn (maize) (corn (maize)): not injurious
- crop injury, sorghum (sorghum): not injurious
- crop injury, soybeans (soybeans): not injurious
- weed control in field trials [2]: acceptable control

From patent US20020052295A1, “Diacyl derivatives of propylene diamine having herbicidal activity” (priority 1999, published 2002)
